Holding throughout (type): cell-based
In one assay the target is hKv1.3 (Homo sapiens, UniProt P22001). Kind of assay: cell-based. The following applies: Kv1.3 (IWQ) IC50 (nM, Avg).
Assay [1] relates to IL-2 secretion from T cells in human whole blood. The following applies: read-out: WB (IL-2) IC50 (nM, Avg).
In assay [2] the test system is IFN-g secretion from T cells in human whole blood. As to conditions: read-out: WB (IFNg) IC50 (nM, Avg).

Positions of bridges follow the written chain, without caps; N, C: chain ends. Residues, ends and D or L forms follow the SMILES beside them.

A word on the IC50: it is the concentration needed to halve the response being measured.

Sequence of hKv1.3 (P22001 whole entry): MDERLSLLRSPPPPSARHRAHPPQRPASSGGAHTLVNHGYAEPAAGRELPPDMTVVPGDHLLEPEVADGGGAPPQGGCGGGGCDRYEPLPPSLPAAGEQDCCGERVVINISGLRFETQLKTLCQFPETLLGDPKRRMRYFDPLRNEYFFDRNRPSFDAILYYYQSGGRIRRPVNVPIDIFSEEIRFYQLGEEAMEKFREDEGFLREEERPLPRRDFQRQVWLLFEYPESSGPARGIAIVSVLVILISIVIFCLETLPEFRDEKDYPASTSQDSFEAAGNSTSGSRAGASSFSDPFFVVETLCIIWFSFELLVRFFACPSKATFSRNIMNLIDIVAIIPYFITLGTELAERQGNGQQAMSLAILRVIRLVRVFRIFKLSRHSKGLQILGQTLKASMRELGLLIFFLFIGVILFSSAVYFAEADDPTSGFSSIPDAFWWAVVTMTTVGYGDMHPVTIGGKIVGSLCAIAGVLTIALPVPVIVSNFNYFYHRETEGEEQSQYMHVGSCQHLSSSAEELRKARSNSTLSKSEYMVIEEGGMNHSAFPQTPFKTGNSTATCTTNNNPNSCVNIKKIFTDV

`CC[C@H](C)[C@@H]1NC(=O)[C@H]([C@@H](C)O)NC(=O)[C@H](CC(=O)O)NC(=O)[C@H](CCC(=O)O)NC(=O)[C@@H](NC(=O)[C@H](CO)NC(=O)[C@@H](N)CCCNC(=N)N)CSSC[C@@H](C(N)=O)NC(=O)[C@H]([C@@H](C)O)NC(=O)CNC(=O)[C@@H]2CSSC[C@@H]3NC(=O)[C@H](CCCCN)NC(=O)[C@H](Cc4ccccc4)NC(=O)[C@H](C)NC(=O)[C@H]([C@@H](C)O)NC(=O)[C@H](CSSC[C@H](NC(=O)[C@H](Cc4ccccc4)NC(=O)[C@H](CO)NC(=O)[C@H](CC(C)C)NC(=O)[C@H](CCCNC(=N)N)NC(=O)[C@H](Cc4ccc(O)cc4)NC(=O)[C@H](CCCCN)NC(=O)[C@H](CCSC)NC(=O)[C@H](CO)NC(=O)[C@H](Cc4c[nH]cn4)NC(=O)[C@H](CCCNC(=N)N)NC3=O)C(=O)N[C@@H](CCCCN)C(=O)N[C@@H](CCCNC(=N)N)C(=O)N[C@@H]([C@@H](C)O)C(=O)N2)NC(=O)[C@H](CCCNC(=N)N)NC(=O)[C@H](CCC(=O)O)NC(=O)[C@H](CCCCN)NC(=O)[C@@H]2CCCN2C1=O` [[Glu4,10; Lys16,29;Arg18,30]ShK-amide] (H-RSCEDTIPKERCTAFKCRHSMKYRLSFCKRTCGTC-NH2; disulfide 3-35, 12-28, 17-32): the IC50 on hKv1.3 came to 0.064 nM; in assay [1] it was 0.114 nM; in assay [2], 0.217 nM.

On to `CCCC[C@@H]1NC(=O)[C@H](CO)NC(=O)[C@H](Cc2c[nH]cn2)NC(=O)[C@H](CCC(=O)O)NC(=O)[C@@H]2CSSC[C@@H]3NC(=O)[C@H]([C@@H](C)O)NC(=O)[C@H](CCCCN)NC(=O)[C@H](CCCNC(=N)N)NC(=O)[C@H](CSSC[C@H](NC(=O)[C@H](CCCNC(=N)N)NC(=O)[C@H](CO)NC(=O)[C@H](CCCCN)NC(=O)[C@@H]4CCCN4C(=O)[C@H]([C@@H](C)CC)NC(=O)[C@H]([C@@H](C)O)NC(=O)[C@H](CC(=O)O)NC(=O)[C@H](CCC(=O)O)NC(=O)[C@@H](NC(=O)[C@H](CO)NC(=O)[C@@H](N)CCCNC(=N)N)CSSC[C@@H](C(N)=O)NC(=O)[C@H]([C@@H](C)O)NC(=O)CNC3=O)C(=O)N[C@@H]([C@@H](C)O)C(=O)N[C@@H](C)C(=O)N[C@@H](Cc3ccccc3)C(=O)N[C@@H](CCCCN)C(=O)N2)NC(=O)[C@H](Cc2ccccc2)NC(=O)[C@H](CO)NC(=O)[C@H](CC(C)C)NC(=O)[C@H](CCCNC(=N)N)NC(=O)[C@H](Cc2ccc(O)cc2)NC(=O)[C@H](CCCCN)NC1=O` [[Glu4,18, Lys16,Nle21]ShK-amide], for which the results for the IC50 (against hKv1.3; in assay [1]; in assay [2]) were 0.239 nM, 0.603 nM and 0.934 nM, respectively.

For `CCCC[C@@H]1NC(=O)[C@H](CO)NC(=O)[C@H](Cc2c[nH]cn2)NC(=O)[C@H](CCC(=O)O)NC(=O)[C@@H]2CSSC[C@@H]3NC(=O)[C@H]([C@@H](C)O)NC(=O)[C@H](CCCCN)NC(=O)[C@H](CCCNC(=N)N)NC(=O)[C@H](CSSC[C@H](NC(=O)[C@H](CCCNC(=N)N)NC(=O)[C@H](CO)NC(=O)[C@H](CCCCN)NC(=O)[C@@H]4CCCN4C(=O)[C@H]([C@@H](C)CC)NC(=O)[C@H]([C@@H](C)O)NC(=O)[C@H](CC(=O)O)NC(=O)[C@H](CCC(=O)O)NC(=O)[C@@H](NC(=O)[C@H](CO)NC(=O)[C@@H](N)CCCNC(=N)N)CSSC[C@@H](C(N)=O)NC(=O)[C@H]([C@@H](C)O)NC(=O)CNC3=O)C(=O)N[C@@H]([C@@H](C)O)C(=O)N[C@@H](C)C(=O)N[C@@H](C)C(=O)N[C@@H](CCCCN)C(=O)N2)NC(=O)[C@H](Cc2ccccc2)NC(=O)[C@H](CO)NC(=O)[C@H](CC(C)C)NC(=O)[C@H](CCCNC(=N)N)NC(=O)[C@H](Cc2ccc(O)cc2)NC(=O)[C@H](CCCCN)NC1=O` [[Glu4,18,A1a15,Lys16,Nle21]ShK-amide], the IC50 at hKv1.3 turned out to be 0.346 nM; in assay [1], 1.22 nM; in assay [2] it was 1.6 nM.

For the compound `CCCC[C@@H]1NC(=O)[C@H](CO)NC(=O)[C@H](Cc2c[nH]cn2)NC(=O)[C@H](CCCCN)NC(=O)[C@@H]2CSSC[C@@H]3NC(=O)[C@H]([C@@H](C)O)NC(=O)[C@H](CCCNC(=N)N)NC(=O)[C@H](CCCNC(=N)N)NC(=O)[C@H](CSSC[C@H](NC(=O)[C@H](CCCNC(=N)N)NC(=O)[C@H](CO)NC(=O)[C@H](CCCCN)NC(=O)[C@@H]4CCCN4C(=O)[C@H]([C@@H](C)CC)NC(=O)[C@H]([C@@H](C)O)NC(=O)[C@H](CC(=O)O)NC(=O)[C@H](CCC(=O)O)NC(=O)[C@@H](NC(=O)[C@H](CO)NC(=O)[C@@H](N)CCCNC(=N)N)CSSC[C@@H](C(N)=O)NC(=O)[C@H]([C@@H](C)O)NC(=O)CNC3=O)C(=O)N[C@@H]([C@@H](C)O)C(=O)N[C@@H](C)C(=O)N[C@@H](Cc3ccccc3)C(=O)N[C@@H](CCCCN)C(=O)N2)NC(=O)[C@H](Cc2ccccc2)NC(=O)[C@H](CO)NC(=O)[C@H](CC(C)C)NC(=O)[C@H](CCCNC(=N)N)NC(=O)[C@H](Cc2ccc(O)cc2)NC(=O)[C@H](CCCCN)NC1=O` [[Glu4, Lys16, Nle21,Arg30]ShK-amide], the values for the concentration for half-maximal inhibition (IC50) (on hKv1.3; in assay [1]; in assay [2]) were 0.132 nM, 1.18 nM and 1.34 nM, respectively.

Turning to `CC[C@@H]1NC(=O)[C@H](CO)NC(=O)[C@H](Cc2c[nH]cn2)NC(=O)[C@H](CCCCN)NC(=O)[C@@H]2CSSC[C@@H]3NC(=O)[C@H]([C@@H](C)O)NC(=O)[C@H](CCCCN)NC(=O)[C@H](CCCNC(=N)N)NC(=O)[C@H](CSSC[C@H](NC(=O)[C@H](CCCNC(=N)N)NC(=O)[C@H](CO)NC(=O)[C@H](CCCCN)NC(=O)[C@@H]4CCCN4C(=O)[C@H]([C@@H](C)CC)NC(=O)[C@H]([C@@H](C)O)NC(=O)[C@H](CC(=O)O)NC(=O)[C@H](CCC(=O)O)NC(=O)[C@@H](NC(=O)[C@H](CO)NC(=O)[C@@H](N)CCCNC(=N)N)CSSC[C@@H](C(N)=O)NC(=O)[C@H]([C@@H](C)O)NC(=O)CNC3=O)C(=O)N[C@@H]([C@@H](C)O)C(=O)N[C@@H](C)C(=O)N[C@@H](Cc3ccccc3)C(=O)N[C@@H](CCCCN)C(=O)N2)NC(=O)[C@H](Cc2ccccc2)NC(=O)[C@H](CO)NC(=O)[C@H](CC(C)C)NC(=O)[C@H](CCCNC(=N)N)NC(=O)[C@H](Cc2ccc(O)cc2)NC(=O)[C@H](CCCCN)NC1=O` [[Glu4, Lys16,Abu21]ShK-amide], the IC50 against hKv1.3 stood at 0.33 nM; in assay [1] it was 1.11 nM; in assay [2], 1.76 nM.

As for `CCCC[C@@H]1NC(=O)[C@H](CO)NC(=O)[C@H](Cc2c[nH]cn2)NC(=O)[C@H](CCCCN)NC(=O)[C@@H]2CSSC[C@@H]3NC(=O)[C@H]([C@@H](C)O)NC(=O)[C@H](CCCCN)NC(=O)[C@H](CCCNC(=N)N)NC(=O)[C@H](CSSC[C@H](NC(=O)[C@H](CCCNC(=N)N)NC(=O)[C@H](CO)NC(=O)[C@H](CCCCN)NC(=O)[C@@H]4CCCN4C(=O)[C@H]([C@@H](C)CC)NC(=O)[C@H]([C@@H](C)O)NC(=O)[C@H](CC(=O)O)NC(=O)[C@H](CCC(=O)O)NC(=O)[C@@H](NC(=O)[C@H](CO)NC(=O)[C@@H](N)CCCNC(=N)N)CSSC[C@@H](C(N)=O)NC(=O)[C@H]([C@@H](C)O)NC(=O)CNC3=O)C(=O)N[C@@H]([C@@H](C)O)C(=O)N[C@@H](C)C(=O)N[C@@H](Cc3ccccc3)C(=O)N[C@@H](CCCCN)C(=O)N2)NC(=O)[C@H](Cc2ccccc2)NC(=O)[C@H](CO)NC(=O)[C@H](CC(C)C)NC(=O)[C@H](CCCNC(=N)N)NC(=O)[C@H](Cc2ccc(O)cc2)NC(=O)[C@H](CCCCN)NC1=O` [[Glu4, Lys16,Nle21]ShK-amide], the values for the IC50 (on hKv1.3; in assay [1]; in assay [2]) were 0.149 nM, 0.57 nM and 0.965 nM, respectively.

In the case of `CCC[C@@H]1NC(=O)[C@H](CO)NC(=O)[C@H](Cc2c[nH]cn2)NC(=O)[C@H](CCCCN)NC(=O)[C@@H]2CSSC[C@@H]3NC(=O)[C@H]([C@@H](C)O)NC(=O)[C@H](CCCCN)NC(=O)[C@H](CCCNC(=N)N)NC(=O)[C@H](CSSC[C@H](NC(=O)[C@H](CCCNC(=N)N)NC(=O)[C@H](CO)NC(=O)[C@H](CCCCN)NC(=O)[C@@H]4CCCN4C(=O)[C@H]([C@@H](C)CC)NC(=O)[C@H]([C@@H](C)O)NC(=O)[C@H](CC(=O)O)NC(=O)[C@H](CCC(=O)O)NC(=O)[C@@H](NC(=O)[C@H](CO)NC(=O)[C@@H](N)CCCNC(=N)N)CSSC[C@@H](C(N)=O)NC(=O)[C@H]([C@@H](C)O)NC(=O)CNC3=O)C(=O)N[C@@H]([C@@H](C)O)C(=O)N[C@@H](C)C(=O)N[C@@H](Cc3ccccc3)C(=O)N[C@@H](CCCCN)C(=O)N2)NC(=O)[C@H](Cc2ccccc2)NC(=O)[C@H](CO)NC(=O)[C@H](CC(C)C)NC(=O)[C@H](CCCNC(=N)N)NC(=O)[C@H](Cc2ccc(O)cc2)NC(=O)[C@H](CCCCN)NC1=O` [[Glu4, Lys16,Nva21]ShK-amide], the 50% inhibitory concentration (IC50) on hKv1.3 was 0.086 nM; in assay [1], 0.405 nM; in assay [2] it was 0.427 nM.

Take `CC[C@H](C)[C@@H]1NC(=O)[C@H]([C@@H](C)O)NC(=O)[C@H](CC(=O)O)NC(=O)[C@H](CCC(=O)O)NC(=O)[C@@H](NC(=O)[C@H](CO)NC(=O)[C@@H](N)CCCNC(=N)N)CSSC[C@@H](C(N)=O)NC(=O)[C@H]([C@@H](C)O)NC(=O)CNC(=O)[C@@H]2CSSC[C@@H]3NC(=O)[C@H](CCCCN)NC(=O)[C@H](Cc4ccccc4)NC(=O)[C@H](C)NC(=O)[C@H]([C@@H](C)O)NC(=O)[C@H](CSSC[C@H](NC(=O)[C@H](Cc4ccccc4)NC(=O)[C@H](CO)NC(=O)[C@H](CC(C)C)NC(=O)[C@H](CCCNC(=N)N)NC(=O)[C@H](Cc4ccc(O)cc4)NC(=O)[C@H](CCCCN)NC(=O)[C@H](CO)NC(=O)[C@H](CO)NC(=O)[C@H](Cc4c[nH]cn4)NC(=O)[C@H](CCCCN)NC3=O)C(=O)N[C@@H](CCCNC(=N)N)C(=O)N[C@@H](CCCCN)C(=O)N[C@@H]([C@@H](C)O)C(=O)N2)NC(=O)[C@H](CCCNC(=N)N)NC(=O)[C@H](CO)NC(=O)[C@H](CCCCN)NC(=O)[C@@H]2CCCN2C1=O` [[Glu4, Lys16,Ser21]ShK-amide]: the IC50 at hKv1.3 is 0.098 nM; in assay [1] it was 0.86 nM; in assay [2] it was 1.99 nM.

The values above are taken from patent US20120121591A1 (priority 2009, published 2012).
